Results: patent publication US9469650B2, “Melampomagnolide B derivatives” (BOARD OF TRUSTEES OF THE UNIVERSITY OF ARKANSAS, priority 2013, dated 2016)

Tests used:
[1] = system: 786-0; experiment: panel of 60 human tumor cell lines, growth inhibition (Renal Cancer); settings: Homo sapiens
[2] = system: HCC-2998; experiment: panel of 60 human tumor cell lines, growth inhibition (Colon Cancer); settings: Homo sapiens
[3] = system: HS 578T; experiment: panel of 60 human tumor cell lines, growth inhibition (Breast Cancer); settings: Homo sapiens, Hs-578T
[4] = system: HCT-116; experiment: panel of 60 human tumor cell lines, growth inhibition (Colon Cancer); settings: Homo sapiens; for GI50: HCT-116, HCT-116
[5] = system: MCF7; experiment: panel of 60 human tumor cell lines, growth inhibition (Breast Cancer); settings: Homo sapiens; for GI50: MCF7, MCF7
[6] = system: A498; experiment: panel of 60 human tumor cell lines, growth inhibition (Renal Cancer); settings: Homo sapiens
[7] = system: SR; experiment: panel of 60 human tumor cell lines, growth inhibition (Leukemia); settings: Homo sapiens
[8] = system: SNB-19; experiment: panel of 60 human tumor cell lines, growth inhibition (CNS Cancer); settings: Homo sapiens
[9] = system: CAKI-1; experiment: panel of 60 human tumor cell lines, growth inhibition (Renal Cancer); settings: Homo sapiens
[10] = system: IGROV1; experiment: panel of 60 human tumor cell lines, growth inhibition (Ovarian Cancer); settings: Homo sapiens
[11] = system: MDA-MB-468; experiment: panel of 60 human tumor cell lines, growth inhibition (Breast Cancer); settings: Homo sapiens
[12] = system: T-47D; experiment: as above; settings: Homo sapiens, T47D
[13] = system: UO-31; experiment: panel of 60 human tumor cell lines, growth inhibition (Renal Cancer); settings: Homo sapiens
[14] = system: MOLT-4; experiment: panel of 60 human tumor cell lines, growth inhibition (Leukemia); settings: Homo sapiens
[15] = system: SW-620; experiment: panel of 60 human tumor cell lines, growth inhibition (Colon Cancer); settings: Homo sapiens; for GI50: SW-620, SW-620
[16] = system: SNB-75; experiment: panel of 60 human tumor cell lines, growth inhibition (CNS Cancer); settings: Homo sapiens
[17] = system: SF-268; experiment: as above; settings: Homo sapiens
[18] = system: TK-10; experiment: panel of 60 human tumor cell lines, growth inhibition (Renal Cancer); settings: Homo sapiens; for GI50: TK-10, TK-10
[19] = system: NCI/ADR-RES; experiment: panel of 60 human tumor cell lines, growth inhibition (Ovarian Cancer); settings: Homo sapiens

**Q.** What does the source list for C=C1C(=O)O[C@H]2[C@H]1CC/C(COC(=O)NCCN1CCOCC1)=C\CC[C@@]1(C)O[C@@H]21 [JVM 57, ((1aR,7aS,10aS,10bS,E)-1a-methyl-8-methylene-9-oxo-1a,2,3,6,7,7a,8,9,10a,10b-decahydrooxireno[2′,3′:9,10]-cyclodeca[1,2-b]furan-5-yl)-methyl(2-morpholinoethyl)carbamate]?
**A.** GI50 ([1]; 786-0): 11.4 µM; CC50 ([1]; 786-0, read-out: LC50): 59.4 µM; IC (TGI) ([1]; 786-0, read-out: TGI): 26 µM; GI50 ([2]; HCC 2998): 19.7 µM; CC50 ([2]; HCC 2998, read-out: LC50): 72.3 µM; IC (TGI) ([2]; HCC 2998, read-out: TGI): 37.7 µM; GI50 [3]: 20.1 µM; CC50 ([3]; read-out: LC50): > 100 µM; IC (TGI) ([3]; read-out: TGI): > 100 µM; GI50 [4]: 2.87 µM; GI50 ([4]; 5-dose assay): 2.87 µM; CC50 ([4]; HCT-116, read-out: LC50): 38.9 µM; IC (TGI) ([4]; HCT-116, read-out: TGI): 10.7 µM; GI50 [5]: 3.54 µM; GI50 ([5]; 5-dose assay): 3.54 µM; CC50 ([5]; MCF7, read-out: LC50): 53.1 µM; IC (TGI) ([5]; MCF7, read-out: TGI): 14.4 µM; GI50 ([6]; A498): 19.4 µM; CC50 ([6]; A498, read-out: LC50): > 100 µM; IC (TGI) ([6]; A498, read-out: TGI): 57 µM; GI50 [7]: 3.65 µM; CC50 ([7]; read-out: LC50): > 100 µM; IC (TGI) ([7]; read-out: TGI): 25.1 µM; GI50 ([8]; SNB-19): 45.3 µM; CC50 ([8]; SNB-19, read-out: LC50): > 100 µM; IC (TGI) ([8]; SNB-19, read-out: TGI): > 100 µM; GI50 ([9]; CAKI-1): 4.31 µM; CC50 ([9]; CAKI-1, read-out: LC50): 52.7 µM; IC (TGI) ([9]; CAKI-1, read-out: TGI): 17.7 µM; GI50 ([10]; IGROV-1): 3.49 µM; CC50 ([10]; IGROV-1, read-out: LC50): 58.6 µM; IC (TGI) ([10]; IGROV-1, read-out: TGI): 14.6 µM; GI50 ([11]; MDA-MB-468): 3.26 µM; CC50 ([11]; MDA-MB-468, read-out: LC50): 59.1 µM; IC (TGI) ([11]; MDA-MB-468, read-out: TGI): 14.6 µM; GI50 [12]: 6.32 µM; CC50 ([12]; read-out: LC50): 71.5 µM; IC (TGI) ([12]; read-out: TGI): 23.2 µM; GI50 ([13]; UO-31): 10.7 µM; CC50 ([13]; UO-31, read-out: LC50): 54.5 µM; IC (TGI) ([13]; UO-31, read-out: TGI): 24.1 µM; GI50 ([14]; MOLT-4): 5 µM; CC50 ([14]; MOLT-4, read-out: LC50): > 100 µM; IC (TGI) ([14]; MOLT-4, read-out: TGI): 22.9 µM; GI50 [15]: 3.48 µM; GI50 ([15]; 5-dose assay): 3.48 µM; CC50 ([15]; SW-620, read-out: LC50): 64.8 µM; IC (TGI) ([15]; SW-620, read-out: TGI): 13.9 µM; GI50 ([16]; SNB-75): 19.5 µM; CC50 ([16]; SNB-75, read-out: LC50): > 100 µM; IC (TGI) ([16]; SNB-75, read-out: TGI): > 100 µM; GI50 ([17]; SF-268): 14.5 µM; CC50 ([17]; SF-268, read-out: LC50): 64.4 µM; IC (TGI) ([17]; SF-268, read-out: TGI): 30.5 µM; GI50 [18]: 3.93 µM; GI50 ([18]; 5-dose assay): 3.93 µM; CC50 ([18]; TK-10, read-out: LC50): 38.9 µM; IC (TGI) ([18]; TK-10, read-out: TGI): 13.9 µM; GI50 [19]: 52.3 µM; CC50 ([19]; read-out: LC50): > 100 µM; IC (TGI) ([19]; read-out: TGI): > 100 µM
